{
  "source": "patent US20220016111A1",
  "about": "“Methods of Treating Inflammation” (The Walter and Eliza Hall Institute of Medical Research, priority 2018, published 2022)",
  "key": {"[1]": {"settings": "in vivo, cited from earlier work"}, "[2]": {"settings": "in-vivo; cited from earlier work"}, "EZH1 [3]": {"biological_target": "T1, EZH1 (Homo sapiens, UniProt Q92800)", "T1 sequence (Q92800 whole entry, species assumed)": "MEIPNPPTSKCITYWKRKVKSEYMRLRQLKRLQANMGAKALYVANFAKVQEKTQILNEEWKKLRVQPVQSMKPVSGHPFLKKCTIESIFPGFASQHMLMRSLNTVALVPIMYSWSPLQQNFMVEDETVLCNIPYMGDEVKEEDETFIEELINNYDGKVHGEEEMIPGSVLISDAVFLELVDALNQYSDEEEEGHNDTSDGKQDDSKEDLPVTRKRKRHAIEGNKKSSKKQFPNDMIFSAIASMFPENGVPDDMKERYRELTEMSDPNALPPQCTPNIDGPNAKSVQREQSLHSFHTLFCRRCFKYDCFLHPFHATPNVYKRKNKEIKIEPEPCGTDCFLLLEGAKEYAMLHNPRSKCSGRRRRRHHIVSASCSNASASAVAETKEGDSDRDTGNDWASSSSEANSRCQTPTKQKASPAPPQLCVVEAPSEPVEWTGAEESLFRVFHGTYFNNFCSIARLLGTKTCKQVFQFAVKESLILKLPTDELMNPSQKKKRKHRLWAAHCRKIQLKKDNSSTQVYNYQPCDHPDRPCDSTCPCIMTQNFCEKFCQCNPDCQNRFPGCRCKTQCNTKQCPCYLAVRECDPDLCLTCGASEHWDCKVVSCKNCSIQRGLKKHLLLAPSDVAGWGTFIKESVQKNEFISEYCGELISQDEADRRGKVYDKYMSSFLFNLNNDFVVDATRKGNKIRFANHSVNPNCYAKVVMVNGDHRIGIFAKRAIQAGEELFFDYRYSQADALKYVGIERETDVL", "T1 sequence (O75530 whole entry partner, species assumed)": "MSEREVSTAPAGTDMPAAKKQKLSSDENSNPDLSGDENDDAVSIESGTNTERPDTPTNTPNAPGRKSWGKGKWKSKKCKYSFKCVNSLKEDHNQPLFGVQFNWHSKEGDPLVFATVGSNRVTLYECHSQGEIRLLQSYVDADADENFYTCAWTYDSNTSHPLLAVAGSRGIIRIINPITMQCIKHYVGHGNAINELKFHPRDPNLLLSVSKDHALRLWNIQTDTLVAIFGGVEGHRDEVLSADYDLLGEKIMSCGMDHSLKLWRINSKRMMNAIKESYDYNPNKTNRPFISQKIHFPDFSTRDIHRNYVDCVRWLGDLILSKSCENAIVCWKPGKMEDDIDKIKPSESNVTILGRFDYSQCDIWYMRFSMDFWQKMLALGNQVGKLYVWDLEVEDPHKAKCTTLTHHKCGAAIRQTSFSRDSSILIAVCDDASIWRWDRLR", "T1 sequence (Q15022 whole entry partner, species assumed)": "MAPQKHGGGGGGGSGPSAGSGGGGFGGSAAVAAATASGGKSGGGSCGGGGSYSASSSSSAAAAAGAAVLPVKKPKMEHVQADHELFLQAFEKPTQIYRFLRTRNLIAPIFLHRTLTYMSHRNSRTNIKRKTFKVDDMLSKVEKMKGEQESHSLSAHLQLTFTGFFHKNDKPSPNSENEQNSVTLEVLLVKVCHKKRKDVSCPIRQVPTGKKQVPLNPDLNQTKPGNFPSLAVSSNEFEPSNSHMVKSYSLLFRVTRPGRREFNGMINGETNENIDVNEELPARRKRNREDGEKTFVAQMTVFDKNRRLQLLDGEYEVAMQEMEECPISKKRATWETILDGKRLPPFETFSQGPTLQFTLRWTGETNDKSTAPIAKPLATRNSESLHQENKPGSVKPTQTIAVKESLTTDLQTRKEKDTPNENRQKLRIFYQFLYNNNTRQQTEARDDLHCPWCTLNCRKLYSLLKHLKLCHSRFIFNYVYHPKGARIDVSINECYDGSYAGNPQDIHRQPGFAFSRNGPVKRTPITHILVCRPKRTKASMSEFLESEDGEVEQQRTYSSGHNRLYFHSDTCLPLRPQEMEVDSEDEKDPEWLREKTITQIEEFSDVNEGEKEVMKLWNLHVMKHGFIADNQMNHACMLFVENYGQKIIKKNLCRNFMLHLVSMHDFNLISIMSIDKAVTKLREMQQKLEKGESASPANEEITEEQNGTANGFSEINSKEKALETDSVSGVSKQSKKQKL", "T1 sequence (Q09028 whole entry partner, species assumed)": "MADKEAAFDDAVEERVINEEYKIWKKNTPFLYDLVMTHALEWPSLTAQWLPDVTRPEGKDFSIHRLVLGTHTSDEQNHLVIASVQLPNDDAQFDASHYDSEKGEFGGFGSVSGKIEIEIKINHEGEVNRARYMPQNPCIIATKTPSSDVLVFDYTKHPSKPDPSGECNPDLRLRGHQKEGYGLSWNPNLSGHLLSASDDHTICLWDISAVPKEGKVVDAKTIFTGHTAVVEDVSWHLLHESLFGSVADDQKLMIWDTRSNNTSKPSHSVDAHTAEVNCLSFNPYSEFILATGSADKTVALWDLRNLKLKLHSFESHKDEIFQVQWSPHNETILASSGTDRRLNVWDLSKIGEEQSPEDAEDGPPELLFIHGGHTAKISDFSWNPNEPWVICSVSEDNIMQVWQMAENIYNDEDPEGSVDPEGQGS", "settings": "cited from earlier work"}, "[4]": {"test_system": "30 other histone or DNA methyltransferases", "settings": "cited from earlier work"}, "H3K27 methylation": {"test_system": "H3K27 methylation", "settings": "cited from earlier work"}, "[5]": {"test_system": "diffused large B-cell lymphomas cells carrying the Y641 mutations", "settings": "cited from earlier work"}, "[6]": {"test_system": "wild type and mutant forms of EZH2", "settings": "cited from earlier work"}, "[7]": {"test_system": "activated C57BL/6 mouse CD4+ T cells", "assay": "Survival/expansion of activated CD4+ T cells in vitro", "assay_type": "cell-based", "settings": "anti-CD3 and anti-CD28 activation, three days", "from_the_text": "(§1) Mean and SEM is shown. […] Scale bar represents 100 μm. e) Quantification of histological analysis showing the frequency of PAS^+ cells and the Inflammation Score. Mean and SEM are shown for n=8 per group. […] Mean and SEM are shown for n=5 (Vehicle), n=4 (each GSK dose).\nNave CD4^+ T cells were isolated from a single-cell suspension from mouse spleen by MACS isolation kit (Miltenyi Biotech). Cells were labelled with CellTrace™ Violet (CTV, Thermo Fisher) then activated in 96 well plates pre-coated with anti-CD3 (10 μg/mL) and anti-CD28 (5 μg/mL) in RPMI-1640 medium supplemented with 10% heat-inactivated fetal bovine serum, 2 mM GlutaMAX™ and 0.05 mM β-mercaptoethanol."}, "[8]": {"test_system": "OVA-induced allergic inflammation", "assay_type": "in vivo, C57BL/6 mice", "procedure": "as §1\nMean and SEM as well as individual data points are shown. n=4 each group. Data was statistically tested by 1-way ANOVA with Dunnet's post-hoc test.\n(§2) Mice were immunized with an intraperitoneal injection of 200 μL Alum/OVA containing 20 μg low-endotoxin ovalbumin (Worthington) and 2.25 mg aluminium hydroxide (Sigma) in sterile PBS on day 0 and day 7. Mice were then rested for a minimum of 2 weeks and then challenged daily for 4 days with nebulized 2% (w/v) ovalbumin (Sigma) in PBS for 15 min. The day after the final challenge (or at a time-point described in the text), mice were sacrificed and bronchoalveolar lavage (250 μL×2 with sterile PBS) was performed from which cellular infiltrate was analysed by flow cytometry and acellular BAL fluid was analysed by Bio-Plex Pro™ cytokine assay (Biorad). Lung tissue was then fixed by inserting 1 mL of 10% formalin via the trachea into the lungs leaving to set in situ for at least 30 min. The mid-section of the left lobe was then excised and placed in liquid formalin for a further 24 h prior to paraffin embedding, sectioning and staining with Periodic acid-Schiff (PAS) and Haematoxylin and Eosin (H&E) stains. Stained slides were imaged using an Aperio Digital Pathology Slide Scanner and quantitated by counting PAS positive epithelial cells and scoring leukocyte infiltration in H&E stained sections according to the scoring chart (FIG. 16). Scores from at least five 20× magnification fields of each stain were averaged for each mouse.\nLung function was assessed by the forced oscillation technique using a FlexiVent system with FX1 module (Scireq, Montreal, Canada). Mice were anaesthetized with ketamine (150 mg/kg) and xylazine (15 mg/kg) then cannulated by tracheostomy with ligation. Baseline respiratory mechanics were recorded, followed by aerosolized saline then increasing doses of methacholine (MCh) (0.1-30 mg/mL). Respiratory impedance (Zrs) was measured and partitioned into airway and parenchymal components through fitting to the Constant Phase Model from which Newtonian resistance (Rn; equivalent to airway resistance) was calculated.\nTotal IgE and OVA-specific IgE were measured by enzyme-linked immunosorbent assay (ELISA). Briefly, 96 well plates were coated with either Rat anti-mouse IgE (to measure total IgE; Southern Biotech clone #23G2, cat #1130-01) or OVA protein (for OVA-specific IgE) in PBS overnight. Samples were diluted (total IgE 1:50-1:200 and OVA-specific IgE 1:50-1:100 based on pilot assays), and incubated in duplicate, prior to incubation with GAM Fc-specific polyclonal anti-IgE-HRP and colorimetric detection using TMB substrate (Thermo Scientific #34028), measuring absorbance at 450 nm. Absorbance values were converted to total IgE levels by reference to a mouse IgE anti-DNP (clone SPE-7) standard curve (0.1 ng/mL-1 μg/mL) which was included on the same plate. OVA-specific IgE absorbance was expressed relative to a reference OVA-immunized WT mouse which was selected prior to measurement. All ELISAs were performed blinded to treatment and genotype."}, "[9]": {"test_system": "established allergic inflammation", "assay": "Established OVA inflammation, single dose of GSK126", "assay_type": "in vivo, C57BL/6 mice", "settings": "single dose 150 mg/kg oral gavage on day 5, assessed 3 days later", "procedure": "CD4+ and CD8+ T cells were first gated by CD11b−GR1−TCRβ+. Neutrophils were gated by CD11bHiGR1Hi. Eosinophils were gated by CD11b+CD11c−SiglecF+. Mean and SEM are shown. n=2 Alum-sensitized vehicle treated controls shown for comparative purposes. OVA-sensitized groups were statistically compared by Student's t test.\nas §2, with “The mid-section of the left lobe was then excised and placed in liquid formalin for a further 24 h prior to paraffin embedding, sectioning and staining with Periodic acid-Schiff (PAS) and Haematoxylin and Eosin (H&E) stains.” left out, “Scores from at least five 20× magnification fields of each stain were averaged for each mouse.” left out"}, "[10]": {"test_system": "established allergic inflammation", "assay": "Established OVA inflammation, three doses of GSK126", "assay_type": "in vivo, C57BL/6 mice", "procedure": "Data shown representative of n=5 OVA/Vehicle (Veh) and OVA/GSK groups, n=2 unchallenged controls (Con) shown for reference purposes. c) Quantification of b. Mean and SEM shown. Group sizes as in b. […] Scale bar represents 100 μm. f) Quantification of PAS^+ cells and Inflammation Score. Mean and SEM shown. Group sizes as in b. Statistical analysis by 1-way ANOVA with Holm-Sidak post-hoc.\nas §2\nThe therapeutic regime was then extended to three doses (day 5, 8 and 10) after establishing inflammation by OVA challenge on days 1-4, and airway inflammation assessed on day 11 (FIG. 15a)."}, "EZH1 [11]": {"biological_target": "T1, EZH1", "settings": "cited from earlier work", "remark": "listed apart in the source"}, "[12]": {"test_system": "20 other methyltransferases", "settings": "cited from earlier work"}, "tumours": {"test_system": "tumours", "settings": "mouse models; cited from earlier work"}, "MLL-rearranged leukemia": {"test_system": "MLL-rearranged leukemia", "settings": "in-vitro and in vivo; cited from earlier work"}, "[13]": {"settings": "75 mg/kg, compared with vehicle"}, "[14]": {"settings": "150 mg/kg oral gavage, each day of OVA challenge"}, "[15]": {"settings": "after OVA challenge and GSK126 administration"}, "[16]": {"settings": "150 mg/kg on day 5, 8 and 10, assessed day 11"}},
  "note": "“Also recorded” adds a separate entry of the source.",
  "data": [
    {"smiles": "CCS(=O)(=O)N1CCC([C@@H](C)n2c(C)c(C(=O)NCc3c(OC)cc(C)[nH]c3=O)c3ccccc32)CC1", "note": "[CPI-169]", "values": [
      {"measurement": "oral bioavailability", "setting": "[1]", "result": "limited oral bioavailability"},
      {"measurement": "antitumor activity and PD target engagement", "setting": "[2]", "result": "demonstrated antitumor activity and PD target engagement"}
    ]},
    {"smiles": "COc1cc(C)[nH]c(=O)c1CNC(=O)c1c(C)n([C@H](C)C2CCN(CC(F)(F)F)CC2)c2ccccc12", "note": "[CPI-1205]", "values": [
      {"measurement": "selectivity for EZH2 over EZH1", "setting": "EZH1 [3]", "result": "modest selectivity"},
      {"measurement": "selectivity against 30 other histone or DNA methyltransferases", "setting": "[4]", "result": "selectivity"},
      {"measurement": "oral bioavailability", "setting": "[1]", "result": "orally bioavailable"}
    ]},
    {"smiles": "CCC(CC)n1ccc2c(C(=O)NCc3c(C)cc(C)[nH]c3=O)cc(C#N)cc21", "note": "[EI1]", "values": [
      {"measurement": "H3K27 methylation and PRC2 target genes in treated cells", "setting": "H3K27 methylation", "result": "genome-wide loss of H3K27 methylation and activation of PRC2 target genes"},
      {"measurement": "effect on lymphoma cells", "setting": "[5]", "result": "decreased proliferation, cell cycle arrest, and apoptosis"}
    ]},
    {"smiles": "Cc1cc(C)c(CNC(=O)c2cc(-c3ccc(CN4CCOCC4)cc3)cc3c2cnn3C2CCCC2)c(=O)[nH]1", "note": "[EPZ 005687]", "values": [
      {"measurement": "affinity and selectivity for EZH2", "setting": "[6]", "result": "high affinity and selectivity"},
      {"measurement": "pharmacokinetic properties", "setting": "[1]", "result": "suboptimal"}
    ]},
    {"smiles": "CC[C@H](C)n1cc(C)c2c(C(=O)NCc3c(C)cc(C)[nH]c3=O)cc(-c3ccc(N4CCNCC4)nc3)cc21", "note": "[GSK126]", "values": [
      {"measurement": "number of cells recovered in the culture compared to vehicle control", "setting": "[7]", "result": "dose-dependent effect"},
      {"measurement": "BAL cells", "setting": "[8]; [13]", "result": "no effect"},
      {"measurement": "PAS staining", "setting": "[8]; [13]", "result": "no effect"},
      {"measurement": "lung tissue inflammation", "setting": "[8]; [13]", "result": "no effect"},
      {"measurement": "PAS+ mucous-producing epithelial cells", "setting": "[8]; 150 mg/kg", "result": "similarly reduced"},
      {"measurement": "levels of inflammation in the lung tissue", "setting": "[8]; 150 mg/kg", "result": "similarly reduced"},
      {"measurement": "BAL T cells", "setting": "[8]; [14]", "result": "dramatic reduction"},
      {"measurement": "BAL eosinophils", "setting": "[8]; [14]", "result": "dramatic reduction"},
      {"measurement": "BAL neutrophils", "setting": "[8]; [14]", "result": "dramatic reduction"},
      {"measurement": "total BAL leukocytes", "setting": "[8]; [14]", "result": "dramatic reduction"},
      {"measurement": "OVA-induced airway hyperresponsiveness", "setting": "[8]; 150 mg/kg, methacholine", "result": "complete protection"},
      {"measurement": "OVA-specific IgE in serum", "setting": "[8]; [15]", "result": "unchanged"},
      {"measurement": "total IgE in serum", "setting": "[8]; [15]", "result": "unchanged"},
      {"measurement": "systemic effects", "setting": "[8]; mouse, in vivo", "result": "did not observe any systemic effects"},
      {"measurement": "BAL granulocyte numbers", "setting": "[9]", "result": "did not alter"},
      {"measurement": "BAL CD4+ T cell numbers", "setting": "[9]; 150 mg/kg", "result": "reduced; also recorded: selectively reduces"},
      {"measurement": "BAL B cells", "setting": "[10]; [16]", "result": "significantly reduced"},
      {"measurement": "BAL CD4+ T cells", "setting": "[10]; [16]", "result": "significantly reduced"},
      {"measurement": "BAL eosinophils", "setting": "[10]; [16]", "result": "significantly reduced"},
      {"measurement": "PAS+ mucous-producing cells", "setting": "[10]; [16]", "result": "reduced"},
      {"measurement": "airway inflammation", "setting": "[10]; [16]", "result": "reduced"},
      {"measurement": "total BAL cells", "setting": "[10]; [16]", "result": "significantly reduced"},
      {"measurement": "lung inflammation levels (all groups)", "setting": "[10]; 7 days after final OVA challenge", "result": "statistically indistinguishable"},
      {"measurement": "increased potency compared to EZH1", "setting": "EZH1 [11]", "result": 150, "unit": "fold"},
      {"measurement": "increased potency compared to 20 other methyltransferases", "setting": "[12]", "result": "> 1000", "unit": "fold"},
      {"measurement": "growth of tumours", "setting": "tumours", "result": "suppress the growth of tumours"}
    ]},
    {"smiles": "CCN(c1cc(-c2ccc(CN3CCOCC3)cc2)cc(C(=O)NCc2c(C)cc(C)[nH]c2=O)c1C)C1CCOCC1", "note": "[Tazemetostat]", "values": [
      {"measurement": "oral bioavailability", "setting": "[1]", "result": "orally bioavailable"}
    ]},
    {"smiles": "CCCc1cc(C)[nH]c(=O)c1CNC(=O)c1cc(-c2ccc(N3CCN(C(C)C)CC3)nc2)cc2c1cnn2C(C)C", "note": "[UNC 1999]", "values": [
      {"measurement": "growth of MLL-rearranged leukemia", "setting": "MLL-rearranged leukemia", "result": "inhibit growth"}
    ]}
  ]
}
